Results published in US20250235500A1, “NEW POLYPEPTIDE FOR PROMOTING TISSUE REPAIR, AND USE THEREOF” (Jinan University, priority 2021, published 2025).
Bridge positions count the residues as written; N and C are the ends. Peptide text beside a SMILES is read from it.

Legend:
skin of subjects = assay: Skin safety evaluation, closed patch test; type: in vivo, human; conditions: TRF7 2 mg/mL, 24 h patch, 20 subjects, observed at 0.5, 6, 12, 24 and 48 h
Procedure: Subject population: A total of 20 subjects, comprising 10 females and 10 males aged 18-55, were selected. All subjects had healthy skin without any history of skin diseases or allergies, meeting the eligibility criteria for participation.
Test method: Qualified patch testers were selected, and a closed patch test method was adopted. Approximately 0.020-0.025 mL of the polypeptide TRF7 (2 mg/mL) was applied to the patch testers, which were then affixed to the subjects' backs using specialized adhesive tape. […] The results of the skin reactions were recorded according to the grading standards stipulated in the Hygienic Standard for Cosmetics.

[1] = test system: stress-induced gastric ulcer in rats; assay: Protective effect on stress-induced gastric ulcer in rats (restraint water-immersion); type: in vivo, SD rats; conditions: sucralfate 1 g/kg intragastric, 7 days; Guth standard; model group 75.1 ± 13.8
Procedure: Test Method: 20 male SD rats weighing 180-210 g (purchased from Guangdong Medical Experimental Animal Center) were randomly divided into five groups: a blank group, a model group, a sucralfate group (1 g/kg, a positive drug group), a low-dose TRF7 group (12.5 mg/kg), and a high-dose TRF7 group (50.0 mg/kg). The treatment groups were subjected to intragastric administration for 7 consecutive days. 24 h before modeling, the rats were subjected to […] but fed with water. […] The rats were cut open along greater curvatures of the stomach, rinsed with the normal saline, and then unfolded, damage to gastric mucosa was observed, and a gastric ulcer index was calculated. Calculating the ulcer index (UI) according to a Guth standard: punctate hemorrhage was scored as 1 point, linear hemorrhage with a length of <1 mm was scored as 2 points, linear hemorrhage with a length of 1-2 mm was scored as 3 points, linear hemorrhage with a length of 2-4 mm was scored as 4 points, linear hemorrhage with a length of >4 mm was scored as 5 points, and linear hemorrhage with a width of >1 mm was scored double points.

| Compound | skin reactions in closed patch test (skin of subjects) | Ulcer inde [1] |
| --- | --- | --- |
| CC(C)C[C@H](NC(=O)[C@@H]1CCCN1C(=O)[C@H](C)NC(=O)[C@H](Cc1ccc(O)cc1)NC(=O)[C@H](CO)NC(=O)CNC(=O)[C@@H]1CSSC[C@H](NC(=O)[C@H](C)N)C(=O)N2CCC[C@H]2C(=O)N[C@@H](CC(N)=O)C(=O)N[C@@H](Cc2ccc(O)cc2)C(=O)N2CCC[C@H]2C(=O)N[C@@H](Cc2ccc(O)cc2)C(=O)N1)C(=O)NCC(=O)N[C@@H](Cc1ccc(O)cc1)C(=O)N[C@@H](Cc1c[nH]cn1)C(=O)N[C@H](C(=O)N[C@@H](CCCNC(=N)N)C(=O)N[C@@H](CCC(=O)O)C(=O)N[C@@H](Cc1ccc(O)cc1)C(=O)N1CCC[C@H]1C(=O)N[C@@H](C)C(=O)NCC(=O)N[C@H](C(=O)N[C@@H](CO)C(=O)N[C@@H](C)C(=O)N[C@@H](C)C(=O)O)C(C)C)C(C)C [TRF7] (H-ACPNYPYCGSYAPLGYHVREYPAGVSAA-OH; disulfide 2-8) | no adverse skin reactions observed | – |
| sucralfate | – | 35.5 ± 8.7 |
